Consider 2 compounds from patent US20130157852A1, “HERBICIDAL COMPOSITION CONTAINING FLUROXYPYR AND GLYPHOSATE” (DOW AGROSCIENCES LLC, priority 2011, published 2013).

What all share (type): in vivo
For assay [1], the system named is Axonopus compressus (AXOCO, tropical carpetgrass). The experiment in a line: Postemergence field weed control, AXOCO. The conditions noted are these: 70 DAA. The procedure:
(§1) Evaluation of Postemergence Herbicidal Activity of Mixtures under Field Conditions Methodology
(§2) Trial sites were located in various countries around the world, including Brazil, United States, Hungary, Indonesia and Malaysia, in non-crop and perennial tree crop plantations. Trials were conducted using normal small plot R&D trials using standard research methodology. Trial plots were between 2 to 4 meters (m) wide by 3 to 10 m long. All treatments were applied using a randomized complete block or factorial trial design with 3-4 replications per treatment. The trial sites had naturally occurring populations of weeds. The weed spectrum included, but was not limited to, scarlet pimpernel (Anagallis arvensis L., ANGAR), tropical carpetgrass (Axonopus compressus, AXOCO), Canada thistle (Cirsium arvense (L.) Scop., CIRAR), calopo (Calopogonium mucunoides, CLOMU), Bengal dayflower (Commelina benghalensis L., COMBE), field bindweed (Convolvus arvensis, CONAR), horseweed (Conyza canadensis (L.) Cronq., ERICA), kochia (Kochia scoparia (L.) Schrad., KCHSC), common mallow (Malva neglecta Wallr., MALNE), African mile-a-minute (Mikania cordata (Burm. f.) B. L., MIKCO), slender panicgrass (Ottochloa nodosa, OTTNO), paspalum (Paspalum conjugatum Bergius, PASCO), wild buckwheat (Polygonum convolvulus L., POLCO) and stinging nettle (Urtica dioica L., URTDI). […]

The test system of assay [2] is Calopogonium mucunoides (CLOMU, calopo). The experiment in a line: Postemergence field weed control, CLOMU. The conditions noted are these: 70 DAA. The procedure:
as §1, §2

Assay [3] concerns Ottochloa nodosa (OTTNO, slender panicgrass). Nature of the assay: Postemergence field weed control, OTTNO. The conditions noted are these: 70 DAA. As for the experimental part: as §1, §2
Assay [4] concerns Paspalum conjugatum Bergius (PASCO, sour paspalum). The experiment in a line: Postemergence field weed control, PASCO. The conditions noted are these: 70 DAA. As for the experimental part: as §1, §2
For assay [5], the system named is Mikania cordata (MIKCO, African mile-a-minute). The experiment in a line: Postemergence field weed control, MIKCO. The conditions noted are these: 28 DAA. The procedure:
as §1, §2

The subject of assay [6] is Kochia scoparia (L.) Schrad. (KCHSC, kochia). The experiment in a line: Postemergence field weed control, KCHSC. As to conditions: 36 DAA. The procedure:
as §1, §2

The subject of assay [7] is Conyza canadensis (L.) Cronq. (ERICA, horseweed). The experiment in a line: Postemergence field weed control, ERICA. The conditions noted are these: 43 DAA. As for the experimental part: as §1
(§3) Trial sites were located in various countries around the world, including Brazil, United States, Hungary, Indonesia and Malaysia, in non-crop and perennial tree crop plantations. Trials were conducted using normal small plot R&D trials using standard research methodology. Trial plots were between 2 to 4 meters (m) wide by 3 to 10 m long. All treatments were applied using a randomized complete block or factorial trial design with 3-4 replications per treatment. The trial sites had naturally occurring populations of weeds. The weed spectrum included, but was not limited to, scarlet pimpernel (Anagallis arvensis L., ANGAR), tropical carpetgrass (Axonopus compressus, AXOCO), Canada thistle (Cirsium arvense (L.) Scop., CIRAR), calopo (Calopogonium mucunoides, CLOMU), Bengal dayflower (Commelina benghalensis L., COMBE), field bindweed (Convolvus arvensis, CONAR), horseweed (Conyza canadensis (L.) Cronq., ERICA), kochia (Kochia scoparia (L.) Schrad., KCHSC), common mallow (Malva neglecta Wallr., MALNE), African mile-a-minute (Mikania cordata (Burm. f.) B. L., MIKCO), slender panicgrass (Ottochloa nodosa, OTTNO), paspalum (Paspalum conjugatum Bergius, PASCO), wild buckwheat (Polygonum convolvulus L., POLCO) and stinging nettle (Urtica dioica L., URTDI).
(§4) Treatments consisted of tank mixes of commercially available formulations of fluoroxypyr-meptyl ester (Starane® 200, Starane® 250, Starane® Ultra) and glyphosate (Roundup® isopropylammonium salt, Glizmax, Gliz) applied in water. The application volume varied from location to location but was from 100 to 450 liters per hectare (L/ha). Application was made using a precision gas backpack sprayer at pressures ranging from 150 to 300 kPA pressure using 2 to 4 m booms utilizing 4 to 8 flat fan nozzles to broadcast the treatments to the weeds and to the soil.
The treated and control plots were rated blind at various intervals after application. […]

Assay [8] deals with Urtica dioica L. (URTDI, stinging nettle). The experiment in a line: Postemergence field weed control, URTDI. As to conditions: 28 DAA. As for the experimental part:
as §1, §2

The test system of assay [9] is Commelina benghalensis L. (COMBE, Bengal dayflower). Nature of the assay: Postemergence field weed control, COMBE. The conditions noted are these: 28 DAA. The procedure: as §1, §2
Assay [10] concerns Polygonum convolvulus L. (POLCO, wild buckwheat). Nature of the assay: Postemergence field weed control, POLCO. As to conditions: 14 DAA. As for the experimental part: as §1, §3, §4
(§5) The treated and control plots were rated blind at various intervals after application. Ratings were based on Percent (%) Visual weed control, where 0 corresponds to no control and 100 corresponds to complete control.
(§6) Colby's equation was used to determine the herbicidal effects expected from the mixtures (Colby, S. R. Calculation of the synergistic and antagonistic response of herbicide combinations. Weeds 1967 15, 20-22).
(§7) The following equation was used to calculate the expected activity of mixtures containing two active ingredients, A and B:
(§8) A=observed efficacy of active ingredient A at the same concentration as used in the mixture;
(§9) B=observed efficacy of active ingredient B at the same concentration as used in the mixture.

The test system of assay [11] is Convolvus arvensis (CONAR, field bindweed). The experiment in a line: Postemergence field weed control, CONAR. The conditions noted are these: 59 DAA. The procedure:
as §1, §3, §4, §5, §6, §7, §8, §9

In assay [12] the test system is Malva neglecta Wallr. (MALNE, common mallow). The experiment in a line: Postemergence field weed control, MALNE. The conditions noted are these: 14 DAA. The procedure: as §1, §2
In assay [13] the test system is Cirsium arvense (L.) Scop. (CIRAR, Canada thistle). Nature of the assay: Postemergence field weed control, CIRAR. The procedure: as §1, §3, §4, §5, §6, §7, §8, §9
Assay [14] has as its system Anagallis arvensis L. (ANGAR, scarlet pimpernel). Nature of the assay: Postemergence field weed control, ANGAR. The conditions noted are these: 14 DAA. The procedure: as §1, §2
Where [15] appears, read: glyphosate-isopropylammonium 500 gae/ha alone.
[16] abbreviates: glyphosate-isopropylammonium 1000 grams ae/ha alone.
Setting [17] is: fluroxypyr-meptyl 53 gae/ha alone.
The mark [18] stands for this setting: fluroxypyr-meptyl 200 grams ae/ha alone.
Where [19] appears, read: fluroxypyr-meptyl 200 grams ae/ha alone, Table 3.
[20] abbreviates: fluroxypyr-meptyl 400 grams ae/ha alone, Table 4.

Consider `O=C(O)CNCP(=O)(O)O` [Glyphosate-isopropylammonium, glyphosate-isopropylammonium], for which, in [1] (setting [15]), the “AXOCO Obs (Observed weed control)” value turned out to be 59%. Moreover, the “CLOMU Obs (Observed weed control)” value in [2] (setting [15]) came out at 64%. Further, the “OTTNO Obs (Observed weed control)” value in assay [3] (setting [15]) is listed as 59%. Besides, the “PASCO Obs (Observed weed control)” value in [4] (setting [15]) turned out to be 59%. In addition, in assay [5] (glyphosate-isopropylammonium 360 grams ae/ha alone), the “MIKCO Obs (Observed weed control)” value amounted to 58%. The “KCHSC Obs (Observed weed control)” value in assay [6] (glyphosate-isopropylammonium 280 grams ae/ha alone) came out at 23%. The entries for the “ERICA Obs (Observed weed control)” value in assay [7] (glyphosate-isopropylammonium 560 grams ae/ha alone) and in [7] (glyphosate-isopropylammonium 840 grams ae/ha alone) were 18% and 73%, respectively. Besides, in assay [8] (glyphosate-isopropylammonium 1100 grams ae/ha alone), the “URTDI Obs (Observed weed control)” value is given as 24%. The “COMBE Obs (Observed weed control)” value in [9] (glyphosate-isopropylammonium 710 grams ae/ha alone) worked out at 43%. For the same compound, the “POLCO Obs (Observed weed control)” value in [10] (glyphosate-isopropylammonium 1000 grams ae/ha alone, Table 3) was determined as 25%; in [10] (glyphosate-isopropylammonium 1000 grams ae/ha alone, Table 4), 25%; in assay [10] (glyphosate-isopropylammonium 1500 grams ae/ha alone, Table 3), 60%. For the same compound, the “CONAR Obs (Observed weed control)” value in assay [11] (glyphosate-isopropylammonium 1500 grams ae/ha alone, Table 4) came to 43%; in assay [11] (glyphosate-isopropylammonium 2000 grams ae/ha alone, Table 3) it was 55%; in [11] (glyphosate-isopropylammonium 2000 grams ae/ha alone, Table 4), 55%. In assay [12] (setting [16]), the “MALNE Obs (Observed weed control)” value was determined as 14%. In addition, the “CIRAR Obs (Observed weed control)” value in [13] (glyphosate-isopropylammonium 1000 grams ae/ha alone, 14 DAA) is on record as 58%; in assay [13] (glyphosate-isopropylammonium 1000 grams ae/ha alone, 59 DAA), 58%. In assay [14] (setting [16]), the “ANGAR Obs (Observed weed control)” value was found to be 43%.
On to `CCCCCCC(C)OC(=O)COc1nc(F)c(Cl)c(N)c1Cl` (stereo not drawn) [Fluroxypyr-meptyl, fluoroxypyr-meptyl], for which the “AXOCO Obs (Observed weed control)” value in assay [1] (setting [17]) came out at 0%. Moreover, in assay [2] (setting [17]), the “CLOMU Obs (Observed weed control)” value amounted to 69%. In addition, the “OTTNO Obs (Observed weed control)” value in assay [3] (setting [17]) is listed as 0%. The “PASCO Obs (Observed weed control)” value in assay [4] (setting [17]) is given as 0%. Besides, the “MIKCO Obs (Observed weed control)” value in assay [5] (fluroxypyr-meptyl 50 grams ae/ha alone) was 42%. In assay [6] (fluroxypyr-meptyl 67 grams ae/ha alone), the “KCHSC Obs (Observed weed control)” value is on record as 48%. In addition, the “ERICA Obs (Observed weed control)” value in [7] (fluroxypyr-meptyl 140 grams ae/ha alone) worked out at 4%. Besides, the “URTDI Obs (Observed weed control)” value in assay [8] (setting [18]) was 10%. Moreover, in [9] (setting [18]), the “COMBE Obs (Observed weed control)” value is 36%. Also, the “POLCO Obs (Observed weed control)” value is given as 52% in [10] (setting [19]); 68% in assay [10] (fluroxypyr-meptyl 400 grams ae/ha alone, Table 3); 60% in assay [10] (setting [20]). Further, the “CONAR Obs (Observed weed control)” value was found to be 47% in assay [11] (setting [19]); 50% in assay [11] (fluroxypyr-meptyl 300 grams ae/ha alone, Table 4); 48% in assay [11] (setting [20]). In addition, the “MALNE Obs (Observed weed control)” value in [12] (setting [18]) was 48%. For the same compound, the “CIRAR Obs (Observed weed control)” value in [13] (fluroxypyr-meptyl 300 grams ae/ha alone, 59 DAA) was determined as 3%; in assay [13] (fluroxypyr-meptyl 400 grams ae/ha alone, 14 DAA) it was 7%. Moreover, the “ANGAR Obs (Observed weed control)” value in assay [14] (fluroxypyr-meptyl 400 grams ae/ha alone) worked out at 0%.
